Measured values as given in ChEMBL document CHEMBL3045259, “Synthesis, molecular docking studies, and in vitro screening of sulfanilamide-thiourea hybrids as antimicrobial and urease inhibitors” (Med Chem Res, 2013).
Values after ≈ are worked out from the molar mass of the structure shown. Active and inactive are the calls of the source. No cut-off for these calls is given here.

Key:
[1] = target: Urease (Canavalia ensiformis) (UniProt P07374); assay: Ratio of thiourea Ki to compound Ki for Canavalia ensiformis (jack bean) urease
Chain of Urease (Canavalia ensiformis) (P07374 whole entry, looked up): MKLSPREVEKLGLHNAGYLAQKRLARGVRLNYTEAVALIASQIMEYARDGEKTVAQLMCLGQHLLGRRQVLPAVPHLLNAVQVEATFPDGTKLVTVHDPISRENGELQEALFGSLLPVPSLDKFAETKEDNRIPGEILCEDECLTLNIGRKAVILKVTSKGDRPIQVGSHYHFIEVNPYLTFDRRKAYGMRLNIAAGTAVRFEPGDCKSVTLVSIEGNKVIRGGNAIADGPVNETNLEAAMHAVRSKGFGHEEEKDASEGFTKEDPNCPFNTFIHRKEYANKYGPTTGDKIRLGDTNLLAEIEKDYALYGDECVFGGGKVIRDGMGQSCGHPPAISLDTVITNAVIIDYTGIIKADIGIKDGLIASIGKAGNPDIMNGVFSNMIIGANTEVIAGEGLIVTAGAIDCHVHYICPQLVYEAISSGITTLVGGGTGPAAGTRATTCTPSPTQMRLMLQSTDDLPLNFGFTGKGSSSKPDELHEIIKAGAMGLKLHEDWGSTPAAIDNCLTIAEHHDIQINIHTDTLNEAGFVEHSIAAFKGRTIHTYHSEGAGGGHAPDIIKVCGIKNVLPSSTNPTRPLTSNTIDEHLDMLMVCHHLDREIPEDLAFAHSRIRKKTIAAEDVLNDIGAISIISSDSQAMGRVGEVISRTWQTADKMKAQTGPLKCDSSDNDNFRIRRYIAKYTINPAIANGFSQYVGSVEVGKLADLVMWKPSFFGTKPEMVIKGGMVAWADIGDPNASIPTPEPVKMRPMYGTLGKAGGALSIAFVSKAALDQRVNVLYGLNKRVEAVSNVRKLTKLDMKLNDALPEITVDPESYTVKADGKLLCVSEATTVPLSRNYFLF

Escherichia coli = assay: Antibacterial activity against Escherichia coli assessed as growth inhibition after 24 hr by NCCLS broth micro-dilution method; format: functional
Bacillus subtilis = assay: Antibacterial activity against Bacillus subtilis assessed as growth inhibition after 24 hr by NCCLS broth micro-dilution method; format: functional
Shigella flexneri = assay: Antibacterial activity against Shigella flexneri assessed as growth inhibition after 24 hr by NCCLS broth micro-dilution method; format: functional
Staphylococcus aureus = assay: Antibacterial activity against Staphylococcus aureus assessed as growth inhibition after 24 hr by NCCLS broth micro-dilution method; format: functional
Urease = Urease (Canavalia ensiformis, UniProt P07374); assay: (§1) Inhibition of Canavalia ensiformis (jack bean) urease assessed as release of ammonia after 30 min by indophenol method
Chain of Urease (P07374 whole entry, the tested form may be a part): as the sequence (P07374 whole entry, looked up) above

Aspergillus flavus = assay: Antifungal activity against Aspergillus flavus assessed as inhibition of fungal hyphae extension after 24 to 48 hr by agar well diffusion method; format: functional
Aspergillus = assay: Antifungal activity against Aspergillus […] assessed as inhibition of fungal hyphae extension after 24 to 48 hr by agar well diffusion method; format: functional
Aspergillus niger = assay: Antifungal activity against Aspergillus niger assessed as inhibition of fungal hyphae extension after 24 to 48 hr by agar well diffusion method; format: functional
[2] = target: Urease (Canavalia ensiformis) (UniProt P07374); assay: as §1

SMILES | Ratio Ki [1] | MIC (Escherichia coli) | MIC (Bacillus subtilis) | MIC (Shigella flexneri) | MIC (Staphylococcus aureus) | Ki (Urease) | inhibition zone (IZ) (Aspergillus flavus) | inhibition (Aspergillus) | inhibition zone (IZ) (Aspergillus niger) | inhibition [2] | inhibition zone (IZ) (Aspergillus) | inhibition (Aspergillus flavus) | inhibition (Aspergillus niger)
NS(=O)(=O)c1ccc(NC(=S)NC(=O)c2ccc(Cl)cc2)cc1 | 100 | 0.313 µg/mL (≈ 0.846 µM) | 0.156 µg/mL (≈ 0.422 µM) | 0.313 µg/mL (≈ 0.846 µM) | 0.156 µg/mL (≈ 0.422 µM) | 0.2 µM | – | – | – | – | – | – | –
NS(=O)(=O)c1ccc(NC(=S)NC(=O)c2cccc(F)c2)cc1 | – | 0.313 µg/mL (≈ 0.886 µM) | 0.313 µg/mL (≈ 0.886 µM) | 0.156 µg/mL (≈ 0.441 µM) | 0.313 µg/mL (≈ 0.886 µM) | 1.49 µM | 2.8 mm | inactive | 2.4 mm | – | – | – | –
COc1ccc(C(=O)NC(=S)Nc2ccc(S(N)(=O)=O)cc2)c(OC)c1OC | – | 0.313 µg/mL (≈ 0.736 µM) | 0.156 µg/mL (≈ 0.367 µM) | 0.313 µg/mL (≈ 0.736 µM) | 0.156 µg/mL (≈ 0.367 µM) | 1.34 µM | – | – | – | – | – | – | –
NS(=O)(=O)c1ccc(NC(=S)NC(=O)c2cccc(Cl)c2)cc1 | – | 0.156 µg/mL (≈ 0.422 µM) | 0.156 µg/mL (≈ 0.422 µM) | 0.156 µg/mL (≈ 0.422 µM) | 0.156 µg/mL (≈ 0.422 µM) | 1.5 µM | – | – | – | – | – | – | –
NS(=O)(=O)c1ccc(NC(=S)NC(=O)c2cc([N+](=O)[O-])ccc2Cl)cc1 | 50 | 0.313 µg/mL (≈ 0.754 µM) | 0.156 µg/mL (≈ 0.376 µM) | 0.313 µg/mL (≈ 0.754 µM) | 0.156 µg/mL (≈ 0.376 µM) | 0.44 µM | 2.1 mm | inactive | 1.6 mm | – | – | – | –
NS(=O)(=O)c1ccc(NC(=S)NC(=O)Cc2ccccc2)cc1 | – | 0.313 µg/mL (≈ 0.896 µM) | 0.313 µg/mL (≈ 0.896 µM) | 0.313 µg/mL (≈ 0.896 µM) | 0.313 µg/mL (≈ 0.896 µM) | 1.6 µM | – | – | – | – | – | – | –
O=C(O)c1cn(C2CC2)c2cc(N3CCNCC3)c(F)cc2c1=O [CIPROFLOXACIN] | – | 0.156 µg/mL (≈ 0.471 µM) | 0.625 µg/mL (≈ 1.89 µM) | 0.313 µg/mL (≈ 0.945 µM) | 0.156 µg/mL (≈ 0.471 µM) | – | – | – | – | – | – | – | –
Cc1cccc(C(=O)NC(=S)Nc2ccc(S(N)(=O)=O)cc2)c1 | – | 1.25 µg/mL (≈ 3.58 µM) | 0.313 µg/mL (≈ 0.896 µM) | 0.313 µg/mL (≈ 0.896 µM) | 0.625 µg/mL (≈ 1.79 µM) | 0.89 µM | – | – | – | – | – | – | –
Cc1ccccc1C(=O)NC(=S)Nc1ccc(S(N)(=O)=O)cc1 | – | 0.313 µg/mL (≈ 0.896 µM) | 0.625 µg/mL (≈ 1.79 µM) | 0.313 µg/mL (≈ 0.896 µM) | 0.625 µg/mL (≈ 1.79 µM) | – | – | – | – | 53% | – | – | –
NS(=O)(=O)c1ccc(NC(=S)NC(=O)c2cccc([N+](=O)[O-])c2)cc1 | – | 0.313 µg/mL (≈ 0.823 µM) | 0.313 µg/mL (≈ 0.823 µM) | 0.313 µg/mL (≈ 0.823 µM) | 0.313 µg/mL (≈ 0.823 µM) | 0.45 µM | – | – | – | – | – | – | –
CCCCCCCCCCCC(=O)NC(=S)Nc1ccc(S(N)(=O)=O)cc1 | – | 0.313 µg/mL (≈ 0.757 µM) | 0.313 µg/mL (≈ 0.757 µM) | 0.313 µg/mL (≈ 0.757 µM) | 0.313 µg/mL (≈ 0.757 µM) | 1.3 µM | 5.1 mm | – | 4.6 mm | – | 4.9 mm | – | –
NS(=O)(=O)c1ccc(NC(=S)NC(=O)c2ccc([N+](=O)[O-])cc2)cc1 | – | 0.313 µg/mL (≈ 0.823 µM) | 0.156 µg/mL (≈ 0.41 µM) | 0.313 µg/mL (≈ 0.823 µM) | 0.156 µg/mL (≈ 0.41 µM) | 7.5 µM | – | – | – | – | – | – | –
NS(=O)(=O)c1ccc(NC(=S)NC(=O)c2ccc(Cl)cc2[N+](=O)[O-])cc1 | – | 0.156 µg/mL (≈ 0.376 µM) | 0.156 µg/mL (≈ 0.376 µM) | 0.156 µg/mL (≈ 0.376 µM) | 0.156 µg/mL (≈ 0.376 µM) | 5.59 µM | – | – | – | – | – | – | –
Cc1ccc(C(=O)NC(=S)Nc2ccc(S(N)(=O)=O)cc2)cc1 | – | 0.313 µg/mL (≈ 0.896 µM) | 0.313 µg/mL (≈ 0.896 µM) | 0.156 µg/mL (≈ 0.446 µM) | 0.313 µg/mL (≈ 0.896 µM) | 4.32 µM | – | – | – | – | – | – | –
COc1cccc(C(=O)NC(=S)Nc2ccc(S(N)(=O)=O)cc2)c1 | – | 0.313 µg/mL (≈ 0.857 µM) | 0.313 µg/mL (≈ 0.857 µM) | 0.313 µg/mL (≈ 0.857 µM) | 0.313 µg/mL (≈ 0.857 µM) | 0.65 µM | – | – | – | – | – | – | –
NS(=O)(=O)c1ccc(NC(=S)NC(=O)c2ccco2)cc1 | – | 0.313 µg/mL (≈ 0.962 µM) | 0.625 µg/mL (≈ 1.92 µM) | 0.313 µg/mL (≈ 0.962 µM) | 0.625 µg/mL (≈ 1.92 µM) | 1.14 µM | – | – | – | – | – | – | –
NC(N)=S [THIOUREA] | – | – | – | – | – | 23 µM | – | – | – | – | – | – | –
CN(C/C=C/C#CC(C)(C)C)Cc1cccc2ccccc12 [TERBINAFINE] | – | – | – | – | – | – | 5.7 mm | – | 5.3 mm | – | 5.2 mm | – | –
NS(=O)(=O)c1ccc(NC(=S)NC(=O)c2ccc(Cl)cc2Cl)cc1 | – | 0.313 µg/mL (≈ 0.774 µM) | 0.313 µg/mL (≈ 0.774 µM) | 0.313 µg/mL (≈ 0.774 µM) | 0.313 µg/mL (≈ 0.774 µM) | 1.91 µM | – | inactive | 0.8 mm | – | – | inactive | –
COc1cc(OC)cc(C(=O)NC(=S)Nc2ccc(S(N)(=O)=O)cc2)c1 | – | 0.313 µg/mL (≈ 0.791 µM) | 0.313 µg/mL (≈ 0.791 µM) | 0.313 µg/mL (≈ 0.791 µM) | 0.313 µg/mL (≈ 0.791 µM) | 1.21 µM | 1.9 mm | – | 1.5 mm | – | 2.7 mm | – | –
COc1cccc(C(=O)NC(=S)Nc2ccc(S(N)(=O)=O)cc2)c1OC | – | 0.313 µg/mL (≈ 0.791 µM) | 0.313 µg/mL (≈ 0.791 µM) | 0.156 µg/mL (≈ 0.394 µM) | 0.313 µg/mL (≈ 0.791 µM) | 0.82 µM | – | – | – | – | 0.9 mm | inactive | inactive
CCC(CC(=O)NC(=S)Nc1ccc(S(N)(=O)=O)cc1)c1ccccc1 (stereo not drawn) | – | 1.25 µg/mL (≈ 3.19 µM) | 0.313 µg/mL (≈ 0.799 µM) | 0.313 µg/mL (≈ 0.799 µM) | 0.625 µg/mL (≈ 1.6 µM) | 1.23 µM | – | – | – | – | – | – | –
